Where two headings read alike, the source gives them in different places.
Legend:
human topoisomerase I = molecular target: T1, human topoisomerase I (Homo sapiens, UniProt P11387); assay: Topoisomerase I DNA relaxation assay (supercoiled plasmid DNA); assay type: biochemical; conditions: supercoiled plasmid DNA, each compound tested at 1 μM, agarose gel with ethidium bromide
T1 sequence (P11387 1-765): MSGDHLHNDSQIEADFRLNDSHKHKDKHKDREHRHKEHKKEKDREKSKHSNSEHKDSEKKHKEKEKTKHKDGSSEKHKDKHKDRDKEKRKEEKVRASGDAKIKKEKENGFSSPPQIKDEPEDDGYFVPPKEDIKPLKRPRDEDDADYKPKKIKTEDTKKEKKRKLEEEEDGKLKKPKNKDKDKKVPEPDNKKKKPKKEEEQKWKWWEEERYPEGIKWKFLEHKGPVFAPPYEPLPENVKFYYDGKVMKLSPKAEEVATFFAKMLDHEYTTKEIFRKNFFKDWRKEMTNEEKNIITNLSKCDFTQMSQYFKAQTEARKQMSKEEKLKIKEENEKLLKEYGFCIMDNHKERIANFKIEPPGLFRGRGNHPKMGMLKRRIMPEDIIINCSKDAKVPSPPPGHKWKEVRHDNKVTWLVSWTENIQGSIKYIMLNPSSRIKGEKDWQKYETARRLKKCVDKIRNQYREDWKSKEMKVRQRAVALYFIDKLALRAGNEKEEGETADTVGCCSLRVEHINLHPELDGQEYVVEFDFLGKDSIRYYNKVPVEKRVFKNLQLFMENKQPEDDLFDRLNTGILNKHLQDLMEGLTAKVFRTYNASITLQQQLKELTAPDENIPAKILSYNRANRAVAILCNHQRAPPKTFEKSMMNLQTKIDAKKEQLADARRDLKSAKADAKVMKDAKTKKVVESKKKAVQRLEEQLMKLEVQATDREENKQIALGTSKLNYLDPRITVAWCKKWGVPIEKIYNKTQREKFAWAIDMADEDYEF
Method in brief: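 Supercoiled plasmid DNA was relaxed by human topoisomerase I with or without test compound at 1 μM. Products were resolved by agarose gel electrophoresis with ethidium bromide staining.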

LoVo-Dox = assay: SRB colorimetric cell growth inhibition assay, LoVo-Dox (MDR); assay type: cell-based; conditions: Homo sapiens; for GI50: GI=growth inhibition, read-out: GI50 LOVO-DOX; for IC (TGI): TGI=total growth inhibition (cytostatic effect), read-out: TGI LOVO-DOX; for CC50: LC=cell killing (cytotoxic effect)
Method in brief: (§1)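 Human tumour cells continuously exposed to compound in 96-well culture; growth and viability quantified colorimetrically by sulforhodamine B staining. Mean ± SD from triplicate wells; GI (growth inhibition), TGI (total growth inhibition, cytostatic) and LC (cell killing, cytotoxic) parameters derived.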

IGROV = assay: SRB colorimetric cell growth inhibition assay, IGROV; assay type: cell-based; conditions: Homo sapiens, IGROV; for CC50: cell killing (cytotoxic effect); for GI50: GI=growth inhibition, read-out: GI50 IGROV; for IC (TGI): total growth inhibition (cytostatic effect), read-out: TGI IGROV
Method in brief: as §1

PANC-1 = assay: SRB colorimetric cell growth inhibition assay, PANC-1; assay type: cell-based; conditions: Homo sapiens; for GI50: GI=growth inhibition, read-out: GI50 PANC-1; for IC (TGI): TGI=total growth inhibition (cytostatic effect), read-out: TGI PANC-1; for CC50: LC=cell killing (cytotoxic effect)
Method in brief: as §1

DU-145 = assay: SRB colorimetric cell growth inhibition assay, DU-145; assay type: cell-based; conditions: Homo sapiens; for GI50: GI=growth inhibition, read-out: GI50 DU-145; for IC (TGI): total growth inhibition (cytostatic effect), read-out: TGI DU-145; for CC50: cell killing (cytotoxic effect)
Method in brief: as §1

LoVo = assay: SRB colorimetric cell growth inhibition assay, LoVo; assay type: cell-based; conditions: Homo sapiens, LoVo; for CC50: LC=cell killing (cytotoxic effect); for GI50: GI=growth inhibition, read-out: GI50 LOVO; for IC (TGI): TGI=total growth inhibition (cytostatic effect), read-out: TGI LOVO
Method in brief: as §1

SK-MEL-28 = assay: SRB colorimetric cell growth inhibition assay, SK-MEL-28; assay type: cell-based; conditions: Homo sapiens; for GI50: GI=growth inhibition, read-out: GI50 MEL-28; for IC (TGI): total growth inhibition (cytostatic effect), read-out: TGI MEL-28; for CC50: cell killing (cytotoxic effect)
Method in brief: as §1

K-562 = assay: SRB colorimetric cell growth inhibition assay, K-562; assay type: cell-based; conditions: Homo sapiens; for GI50: GI=growth inhibition, read-out: GI50 K-562; for IC (TGI): TGI=total growth inhibition (cytostatic effect), read-out: TGI K-562; for CC50: LC=cell killing (cytotoxic effect)
Method in brief: as §1

LNCaP = assay: SRB colorimetric cell growth inhibition assay, LNCaP; assay type: cell-based; conditions: Homo sapiens, LNCaP; for GI50: GI=growth inhibition, read-out: GI50 LN-caP; for IC (TGI): total growth inhibition (cytostatic effect), read-out: TGI LN-caP; for CC50: cell killing (cytotoxic effect)
Method in brief: as §1

SK-BR-3 = assay: SRB colorimetric cell growth inhibition assay, SK-BR-3; assay type: cell-based; conditions: Homo sapiens; for GI50: GI=growth inhibition, read-out: GI50 SK-BR-3; for IC (TGI): total growth inhibition (cytostatic effect), read-out: TGI SK-BR-3; for CC50: cell killing (cytotoxic effect)
Method in brief: as §1

H-MEC-1 = assay: SRB colorimetric cell growth inhibition assay, H-MEC-1; assay type: cell-based; conditions: Homo sapiens, HMEC-1, H-MEC-1; for GI50: GI=growth inhibition, read-out: GI50 H-MEC-1; for IC (TGI): total growth inhibition (cytostatic effect), read-out: TGI H-MEC-1
Method in brief: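 Sulforhodamine B colorimetric assay of cell growth and viability, mean ± SD of triplicate wells. Parameters derived: GI (growth inhibition), TGI (total growth inhibition, cytostatic) and LC (cell killing, cytotoxic).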

HT-29 = assay: SRB colorimetric cell growth inhibition assay, HT-29; assay type: cell-based; conditions: Homo sapiens; for GI50: GI=growth inhibition, read-out: GI50 HT-29; for IC (TGI): TGI=total growth inhibition (cytostatic effect), read-out: TGI HT-29; for CC50: LC=cell killing (cytotoxic effect)
Method in brief: as §1

IGROV-ET = assay: SRB colorimetric cell growth inhibition assay, IGROV-ET (ET-743 resistant); assay type: cell-based; conditions: Homo sapiens; for GI50: GI=growth inhibition, read-out: GI50 IGROV-ET; for IC (TGI): total growth inhibition (cytostatic effect), read-out: TGI IGROV-ET; for CC50: cell killing (cytotoxic effect)
Method in brief: as §1

A-549 = assay: SRB colorimetric cell growth inhibition assay, A-549; assay type: cell-based; conditions: Homo sapiens; for GI50: GI=growth inhibition, read-out: GI50 A-549; for IC (TGI): TGI=total growth inhibition (cytostatic effect), read-out: TGI A-549; for CC50: LC=cell killing (cytotoxic effect)
Method in brief: as §1

COc1cc(-c2c3n(c4c(=O)oc5cc(OC(=O)[C@H](N)C(C)C)c(OC)cc5c24)CCc2cc(OC(=O)[C@H](N)C(C)C)c(OC)cc2-3)ccc1OC(=O)[C@H](N)C(C)C [Compound 32]
stimulation of DNA cleavage by topoisomerase I / inhibition of topoisomerase I (nicked DNA band) in DNA relaxation assay (human topoisomerase I): No effect | GI50 (LoVo-Dox; LOVO-DOX): 671 nM | IC (TGI) (LoVo-Dox; LOVO-DOX): 2.42 µM | CC50 (LoVo-Dox; read-out: LC50 LOVO-DOX, LOVO-DOX): 8.25 µM | CC50 (IGROV; read-out: LC50 IGROV, IGROV): 6.12 µM | GI50 (IGROV): 561 nM | IC (TGI) (IGROV): 2.06 µM | GI50 (PANC-1; PANC-1, PANC-1): 316 nM | IC (TGI) (PANC-1; PANC-1, PANC-1): 1.38 µM | CC50 (PANC-1; PANC-1, read-out: LC50 PANC-1, PANC-1): 8.76 µM | GI50 (DU-145; DU-145, DU-145): 111 nM | IC (TGI) (DU-145; DU-145, DU-145): 0.309 µM | CC50 (DU-145; DU-145, read-out: LC50 DU-145, DU-145): 857 nM | CC50 (LoVo; read-out: LC50 LOVO, LOVO): 6.31 µM | GI50 (LoVo): 392 nM | IC (TGI) (LoVo): 1.65 µM | GI50 (SK-MEL-28; SK-MEL-28, MEL-28): 1350 nM | IC (TGI) (SK-MEL-28; SK-MEL-28, MEL-28): 2.87 µM | CC50 (SK-MEL-28; SK-MEL-28, read-out: LC50 MEL-28, MEL-28): 6.13 µM | GI50 (K-562; K562, K-562): 673 nM | IC (TGI) (K-562; K562, K-562): 2.43 µM | CC50 (K-562; K562, read-out: LC50 K-562, K-562): 8.31 µM | GI50 (LNCaP; LN-caP): 429 nM | IC (TGI) (LNCaP; LN-caP): 1.67 µM | CC50 (LNCaP; read-out: LC50 LN-caP, LN-caP): 5080 nM | GI50 (SK-BR-3; SK-BR-3, SK-BR-3): 1300 nM | IC (TGI) (SK-BR-3; SK-BR-3, SK-BR-3): 3.19 µM | CC50 (SK-BR-3; SK-BR-3, read-out: LC50 SK-BR-3, SK-BR-3): 7.82 µM | GI50 (H-MEC-1): 276 nM | IC (TGI) (H-MEC-1): 0.723 µM | GI50 (HT-29; HT-29, HT-29): 2660 nM | IC (TGI) (HT-29; HT-29, HT-29): 5.3 µM | CC50 (HT-29; HT-29, read-out: LC50 HT-29, HT-29): 8.76 µM | GI50 (IGROV-ET; IGROV-ET): 666 nM | IC (TGI) (IGROV-ET; IGROV-ET): 3.01 µM | CC50 (IGROV-ET; read-out: LC50 IGROV-ET, IGROV-ET): 8.76 µM | GI50 (A-549; A549, A-549): 1530 nM | IC (TGI) (A-549; A549, A-549): 3.34 µM | CC50 (A-549; A549, read-out: LC50 A-549, A-549): 7.33 µM

COc1cc(-c2c3c4cc(OC)c(OC(=O)[C@@H]5CCCN5)cc4oc(=O)c3n3ccc4cc(OC(=O)[C@@H]5CCCN5)c(OC)cc4c23)ccc1OC(=O)[C@@H]1CCCN1 [Compound 33]
stimulation of DNA cleavage by topoisomerase I / inhibition of topoisomerase I (nicked DNA band) in DNA relaxation assay (human topoisomerase I): marked inhibition of topoisomerase I | GI50 (LoVo-Dox; LOVO-DOX): 198 nM | CC50 (LoVo-Dox; LOVO-DOX, read-out: LC50 LOVO-DOX): 4.33 µM | IC (TGI) (LoVo-Dox; LOVO-DOX): 0.558 µM | GI50 (IGROV): 49.6 nM | CC50 (IGROV; read-out: LC50 IGROV): 4.76 µM | IC (TGI) (IGROV): 0.5 µM | GI50 (PANC-1; PANC-1, PANC-1): 89.2 nM | CC50 (PANC-1; PANC-1, PANC-1, read-out: LC50 PANC-1): 8.44 µM | IC (TGI) (PANC-1; PANC-1, PANC-1): 1.06 µM | GI50 (DU-145; DU-145, DU-145): 18.6 nM | CC50 (DU-145; DU-145, DU-145, read-out: LC50 DU-145): 367 nM | IC (TGI) (DU-145; DU-145, DU-145): 0.046 µM | GI50 (LoVo): 153 nM | CC50 (LoVo; read-out: LC50 LOVO): 0.726 µM | IC (TGI) (LoVo): 0.333 µM | GI50 (SK-MEL-28; SK-MEL-28, MEL-28): 41.1 nM | CC50 (SK-MEL-28; SK-MEL-28, MEL-28, read-out: LC50 MEL-28): 2.48 µM | IC (TGI) (SK-MEL-28; SK-MEL-28, MEL-28): 0.198 µM | GI50 (K-562; K562, K-562): 5.96 nM | CC50 (K-562; K562, K-562, read-out: LC50 K-562): 4.03 µM | IC (TGI) (K-562; K562, K-562): 0.918 µM | GI50 (LNCaP; LN-caP): 39.7 nM | CC50 (LNCaP; LN-caP, read-out: LC50 LN-caP): 423 nM | IC (TGI) (LNCaP; LN-caP): 0.155 µM | GI50 (SK-BR-3; SK-BR-3, SK-BR-3): 30.5 nM | CC50 (SK-BR-3; SK-BR-3, SK-BR-3, read-out: LC50 SK-BR-3): 1.44 µM | IC (TGI) (SK-BR-3; SK-BR-3, SK-BR-3): 0.168 µM | GI50 (H-MEC-1): 9.8 nM | IC (TGI) (H-MEC-1): 0.0214 µM | GI50 (HT-29; HT-29, HT-29): 1340 nM | CC50 (HT-29; HT-29, HT-29, read-out: LC50 HT-29): 8.74 µM | IC (TGI) (HT-29; HT-29, HT-29): 3.42 µM | GI50 (IGROV-ET; IGROV-ET): 78.1 nM | CC50 (IGROV-ET; IGROV-ET, read-out: LC50 IGROV-ET): 8.83 µM | IC (TGI) (IGROV-ET; IGROV-ET): 0.589 µM | GI50 (A-549; A549, A-549): 37.9 nM | CC50 (A-549; A549, A-549, read-out: LC50 A-549): 0.883 µM | IC (TGI) (A-549; A549, A-549): 0.154 µM

Reference: patent US7396837B2, “Antitumoral analogs of lamellarins” (Pharma Mar, S.A.U., priority 2002, dated 2008)
